The values below are quoted from earlier work in patent publication US6558704B1, “Process for preparing pellets containing up to 90 wt.% of a pharmaceutical active ingredient” (Gruenenthal GmbH, priority 1999, dated 2003).

Where a name gives a salt, the structure may show the parent alone.

As for `Cc1c(N(C)CS(=O)(=O)[O-])c(=O)n(-c2ccccc2)n1C.[Na+]` [metamizol-Na], the solubility in water is over 1000 mg/mL.

`CN(C)CCCN1c2ccccc2Sc2ccc(Cl)cc21` [chlorpromazine hydrochloride]: the solubility in water is 2500 mg/mL.
